# System: Class I HDAC1, 2, 3, and 8; class II b HDAC6 and 10; and class IV HDAC11
# Test: In vitro HDAC activity assay
# Type: biochemical, human
# Conditions: in words, from IC50 calculation (Fig. S1A)
# Description: In vitro HDAC inhibition assay
# The half maximal HDAC-inhibitory concentrations (IC50) of resminostat w ere determined by
# in vitro HDAC activity assays (Reaction Biology Corporation RBC, Pennsylvania, USA). For
# the assay, resminostat was dissolved in DMSO and a dilution series with 10 concentrations
# was used. The inhibitory activity of resminostat was tested on purified recombinant human
# HDAC1-11. HDAC1-11 were produced using a baculovirus express ion system (human
# HDAC1: cat# 50051, BPS, California, US; human HDAC2: cat# KDA-21-277, RBC,
# Pennsylvania, USA; human HDAC3: cat# KDA -22-278, RBC, Pennsylvania, USA; human
# HDAC4: cat# 50004 BPS, California, US; human HDAC5: cat# KDA-21-280, RBC, […]
# activities of HDAC1 to 11 were assessed using acetylated AMC (7-amino-4-methycoumarin)-
# labelled fluorogenic peptide substrates: fluorogenic peptide from p53 residues 379-382 (RHKK(Ac)AMC) for HDAC1, 2, 3, 6, 10, 11; fluorogenic HDAC Class IIa Substrate (Trifluoro acetyl Lysine, Ac-LGK(TFA)-AMC) for HDAC 4, 5, 7, 9; and fluorogenic peptide from p53 residues 379-382 (RHK(Ac)K(Ac)AMC) for HDAC8. […] In a second step, the deacetylated products were digested by the addition of developer for 1 h at 30°C to produce the fluorescent signal proportional to the amount of deacetylated substrates and the fluorescence was measured using an Envision plate reader at 355 nm (excitation) and 460 nm (emission). […]
structure (smiles),measurement,value
"CN(C)Cc1ccc(S(=O)(=O)n2ccc(/C=C/C(=O)NO)c2)cc1 [resminostat, Resminostat]",inhibition of HDAC activity,inhibits the activity
